# Laboratory results reported in a melting point compilation (Tetko et al.; mined from patent text by program, amines drawn as free bases though some values may be those of a salt).
# Non-standard residues stand in square brackets, D forms with d. Residues, ends and D or L forms follow the SMILES beside them. *: point of attachment. Tos = Cc1ccc(S(=O)(=O)*)cc1; Sar = CNCC(=O)O
row,SMILES,melting point
1,Cn1nc(-c2ccncc2)c(-c2ccc(Cl)cc2)c1N,257 to 258 °C
2,CN(CCCNC(=NCCCOc1cccc(CN2CCCCC2)c1)NC#N)CCN(Cc1ccc(F)cc1)c1ccccn1,65 to 68 °C
3,Cc1cc(F)ccc1Nc1nc(N(C)c2ccccc2)c2cc(OCCCN3CCOCC3)ccc2n1,119 to 120 °C
4,CCOC(=O)c1cc(OCc2ccccc2)c2nc(C)n(C)c2c1,152 °C
5,Cc1nc2c(N)nc3ccccc3c2n1CCOC/C=C/c1ccccc1,112 °C
6,CCCCCc1ccc(C=Nc2ccc(C#N)cc2)cc1,45.6 to 46.4 °C
7,CC(=O)Nc1ccccc1-c1nc(C)c(-c2cccnc2)[nH]1,270 to 271 °C
8,Cc1ccc(S(=O)(=O)N2Cc3cnc(C)n3-c3ccc(Cl)cc3C2c2ccccc2F)cc1 (centres undefined),152 to 153 °C
9,CCCc1nn(C)c2c(=O)n(CCCc3ccc(OC(C)(C)C(=O)O)cc3)c(C)nc12,104 to 106 °C
10,CCOC(=O)c1cnn(CC(O)c2ccccc2)c1NC(=S)NC(=O)c1ccccc1 (centres undefined),171 to 172 °C
11,CN1C2=C(C(=O)CC(C)(C)C2)C(c2ccc(Cl)c(Oc3ccccc3)c2)C2=C1CC(C)(C)CC2=O,183 to 185 °C
12,COc1cc2c(N3CCN(C(=O)Nc4ccc(Oc5ccccc5)cc4)CC3)ncnc2cc1OC(C)C,157 to 160 °C
13,CCOC(=O)[C@H](CSC(=O)c1ccccc1)NC(=O)c1ccccc1,81 °C
14,Oc1ccccc1-c1nc(-c2ccc(-c3ccccc3)cc2)nc(-c2ccc3ccccc3c2)n1,227 to 239 °C
15,COC(=O)C1(O)CC(OC(C)=O)C(NC(=O)Cc2cc(=O)oc3cc(OC(C)=O)ccc23)C(C(OC(C)=O)C(COC(C)=O)OC(C)=O)O1 (centres undefined),105 °C
16,Fc1ccc(Nc2ncnc3cnc(NC4CCC(N5CCOCC5)CC4)nc23)cc1Cl (centres undefined),233 to 235 °C
17,CC(C)(C)c1cc(C[PH](=O)O)cc(C(C)(C)C)c1O,147 to 149 °C
18,O=[N+]([O-])c1ccc(Cl)c(C2SCCS2)c1,130 to 131 °C
19,COc1ccc(CN(C)C2CCN(c3ccc([N+](=O)[O-])cc3)CC2)cc1,144 to 145 °C
20,COc1cccc(S(=O)(=O)N2CCc3cc(OCc4ccccc4)c(OC)cc3C2)c1,124 to 125 °C
21,CN1NC=CC1c1ccc(C(=O)N2Cc3cccn3Cc3ccccc32)c(Cl)c1 (centres undefined),78 to 79 °C
22,CC(=O)c1csc(-c2ccncc2)c1C,87 to 87.5 °C

row,SMILES,melting point
1,O=c1c(Cc2cccnc2)nc2cccnc2n1-c1cccc(-c2ccc3ccccc3c2)c1,155 to 156 °C
2,CSCC(=O)C(Cc1cccc2ccccc12)NC(=O)C(CC(C)C)NC(=O)OCc1ccccc1 (centres undefined),77 to 80 °C
3,Cn1cc(Br)nc(Br)c1=O,94 to 95 °C
4,Cc1ccc(N(Cc2cccnc2)S(C)(=O)=O)c(C)c1,62 to 65 °C
5,O=[N+]([O-])c1ccc(CN2CCCCc3sccc32)cc1,141 to 142 °C
6,CCCCCC1CCC(c2ccc(C(=O)O)cc2)CC1 (centres undefined),30 °C
7,CCC1(CC)C(=O)N(C(C)C)CC(C)(C)N1OC(C)(C)C#N,84 to 89 °C
8,CCN(CC)C(=O)c1ccc2ccccc2c1-c1ccc(N(C)C)cc1,140 to 141 °C
9,Cc1ccccc1NCN1C(=O)CSC1=O,109 to 111 °C
10,C1CNCCN2CCNCCNCCN(CCN1)CCOCCOCC2,75 °C
11,NC(=O)n1ccc(-c2ccc(Sc3ccc(F)cc3)cc2)n1,150 to 155 °C
12,COc1nc2c(Cl)c(Cl)c(Cl)c(Cl)c2n1COCCO,139 °C
13,COCCc1nc2c(N)nc3ccccc3c2n1CCCNC(=O)N1CCOCC1,194 to 196 °C
14,Oc1cnccc1CCCOc1cccnc1Cc1cccc(Br)c1,138 to 139 °C
15,C=CCc1c(O)cc(O)c(C)c1C(=O)OC,72 to 95 °C
16,CC(C)OC1(c2ccc(Cl)cc2)OC(c2ccncc2)=Nc2ccccc21 (centres undefined),114 to 115 °C
17,CCCCn1c(CO)nc2c(Cl)nc3ccccc3c21,184 to 185 °C
18,Cn1c(-c2ccc3ccccc3c2)n[nH]c1=S,223 to 225 °C
19,COC(=O)NC1=NCC(c2ccccc2F)N1C (centres undefined),153 to 155 °C
20,Cc1ccc(C=CC(=O)C=Cc2ccc([N+](=O)[O-])cc2)cc1,182 to 184 °C
21,CCOC(=O)COc1ccc(C(=O)Nc2ccccc2Oc2cccc(-c3nnn[nH]3)c2)cc1,165 to 166 °C
22,COc1ccc(Oc2c(C)cc(CO)cc2C)cc1C(C)C,78 to 80 °C

row,SMILES,melting point
1,CCOCc1nc2c(N)nc3ccccc3c2n1CCCCCC(=O)N1CCOCC1,160 to 162 °C
2,O=S(=O)(O)c1ccc(OC2=C(Oc3ccc(S(=O)(=O)O)cc3)C(F)(F)C(F)(F)C2(F)F)cc1,251 to 255 °C
3,CN(C)C=Nc1nc(=O)n(S(=O)(=O)c2ccc(Cl)cc2)cc1F,207 to 210 °C
4,COc1cc(-c2c(C)noc2C)cc2oc(=O)c(C)c(C)c12,145 to 147 °C
5,COc1ccc(CC(=Nc2ccccc2)NC(=S)NCc2cccnc2)cc1,175 to 176 °C
6,COc1ccc(-c2nc(C)c(NC(=O)c3nnn[nH]3)s2)cc1,205 to 207 °C
7,CC1(C)Oc2ccccc2C=C1/C=C/C=C/C=C/C(=O)O,180 to 182 °C
8,OC(CCc1ccccc1)c1c[nH]cn1 (centres undefined),144 to 146 °C
9,CCCCCCCCCCCCCC[C@]1(C)OO[C@@H]2C[C@H]1CC(=O)[C@@H]2C,46 °C
10,COc1ccc(OCCCCCCCc2cc(C)no2)c(Cl)c1,45 to 46 °C
11,Cn1c([N+](=O)[O-])cnc1C1=NO[C@H]2CCCCC[C@@H]12 (relative stereo),93 to 95 °C
12,Cc1nc(Cl)c([N+](=O)[O-])c(N2CCc3ccccc3CC2)n1,161 to 165 °C
13,Cc1oc(-c2ccccc2)nc1COc1ccc2cc(CCCc3nnn[nH]3)oc2c1,139 to 140 °C
14,Oc1ccc(CCc2cc(O)cc(O)c2)cc1,160 to 161 °C
15,C/C(=N\OC(=O)c1ccc(CN2CCOCC2)cc1)[C@H]1CC[C@H]2[C@@H]3CCC4=CC(=O)CC[C@]4(C)[C@H]3CC[C@]12C,166 to 168 °C
16,CC(C)N1CCN(C(=O)c2cc(N)cc(C(F)(F)F)c2)CC1,89 to 90 °C
17,Oc1cccc2c1CCCC2n1cc[nH]c1=S (centres undefined),188 to 190 °C
18,CC(=O)C1CCC2C3=C(C(=O)CC12C)C1(C)CCC(O)CC1CC3 (centres undefined),170 to 172 °C
19,Cc1nc(-c2ccncn2)cc(=O)[nH]1,320 to 322 °C
20,Cc1cccc(NC(=O)NN2CCN(CCc3c[nH]c4ccccc34)CC2)c1,186 to 188 °C
21,O=CN1CCCN2c3ccccc3Cc3ccccc3C2C1 (centres undefined),146 to 148 °C
22,CCNC(=O)C1CN(C(c2ccccc2)c2ccccc2)C1,91 to 93 °C

# Next, values leading:
row,melting point,SMILES
1,> 320 °C,N#Cc1c2[nH]c(C(=O)O)cc(=O)c2cc2c(=O)cc(C(=O)O)[nH]c12
2,148 °C,CCOC(=O)c1ccc(-c2ccc(Cl)cc2)[nH]1
3,158 °C,CC1(C)Oc2ccc([N+](=O)[O-])cc2C(n2ccccc2=O)C1(O)CNC(=O)C(F)(F)F (centres undefined)
4,60 to 63 °C,CCCCCCOc1cc(-n2c(=O)cc(C(F)(F)F)n(C)c2=O)c(F)cc1Cl
5,93 to 94 °C,COC(=O)c1ccc2occ(-c3cccc(OC(F)(F)F)c3)c2c1
6,131 to 134 °C,CCCCc1cccc2c3c([nH]c12)C(CC)(CC(=O)O)CCC3 (centres undefined)
7,219 to 221 °C,CCCc1nn(C)c(C(N)=O)c1NC(=O)c1cc2cccc(OCC)c2o1
8,239 to 241 °C,COC(=O)c1cc(Cl)cc2c1OCC(=O)N2
9,245 °C,O=c1oc2c(Cl)cccc2c(O)c1-c1ccccc1
10,169 to 172 °C,C=C1C(O)C(CO)OC1n1cc(I)c(=O)[nH]c1=O (centres undefined)
11,248 to 249 °C,CC(C)n1nc(-c2sc(C(=O)NCC(N)=O)nc2-c2ccccc2)ccc1=O
12,249 to 250 °C,O=C1c2cc([N+](=O)[O-])cc3c(N4CCCC4)c([N+](=O)[O-])cc(c23)C(=O)N1O
13,166 to 167 °C,CN(Cc1cc2c3c(c1)c(=O)c(C(=O)NCc1ccc(Cl)cc1)cn3CC(=O)N2CCO)C[C@@H](O)c1ccco1
14,237 °C,Cc1c(Cl)ccc2c3cccc(C(=O)O)c3n(C)c12
15,199 to 201 °C,COc1c(Cc2ccccc2)cc(C(N)=O)c2ccccc12
16,124 to 125 °C,CC(C)Oc1ccc([N+](=O)[O-])cc1C(=O)O
17,159 to 162 °C,CCCCC(CC)COC(=O)C(C#N)=Cc1ccc(C(=O)O)cc1 (centres undefined)

row,melting point,SMILES
1,220 to 225 °C,CCOC(=O)N1CCN(c2c(F)c(N)c3c(=O)c(C(=O)O)cn(C4CC4)c3c2F)C(C)C1 (centres undefined)
2,177 to 179 °C,Cc1cc(C(=O)NCc2cccc([N+](=O)[O-])c2)c(OCC(=O)O)cc1F
3,171 to 177 °C,CN(Cc1sc2c(=O)c(C(=O)NCc3ccc(Cl)cc3)cn(C)c2c1CNS(C)(=O)=O)C[C@@H](O)c1ccccn1
4,178 to 180 °C,COC(=O)c1nc2c(c(-c3cccs3)nn2-c2ccccc2)c(N)c1C(=O)OC
5,149 to 150 °C,Cc1cc(C(=O)NCc2ccc(Br)cc2F)c(O)cc1F
6,128 to 130 °C,Cc1ccc(S(=O)(=O)N(C)CC(=O)N[C@@H](Cc2ccccc2)C(=O)O)cc1 (Tos-[Sar]-Phe-OH)
7,157 to 162 °C,Cc1sc2c(Br)c3ccccc3c(-c3cc(Br)c(O)c(C(C)C)c3)c2c1C
8,143 to 145 °C,CCOc1cc2ncc(C#N)c(Nc3ccc4cn[nH]c4c3)c2cc1OCC
9,190 to 191 °C,Cc1ccc(S(=O)(=O)OCC2COc3ccc4c(=O)ccoc4c3O2)cc1 (centres undefined)
10,208 to 209 °C,Cc1sc(C(=O)OCc2ccccc2)cc1NC(=O)NCc1ccccc1
11,208 to 209 °C,O=C(NCc1ccc(F)c(F)c1)c1cc(-n2cnn(Cc3ccc(F)cc3)c2=O)n[nH]1
12,232 °C,Cc1cncc(-c2ccc3c(=O)c(C(=O)O)cn(C4CC4)c3c2C)c1
13,83 to 87 °C,O=C1C(=O)c2ccc(-c3ccccc3)cc2C2=C1SCC1(CCNCC1)O2
14,198 to 200 °C,CC(C)C(=O)NC1CCc2[nH]c3cc4c(cc3c2C1)OCO4 (centres undefined)
15,> 300 °C,O=C(O)C1=Cc2cc(Cl)c(Oc3ccc(C(=O)O)cc3)cc2OC1C(F)(F)F (centres undefined)
16,143 to 145 °C,CC1=C(c2ccc(OCC(=O)O)c(Cl)c2Cl)CCCC1=O
